Measurements reported in patent US7067145B2, “Use of arachidonic acid for enhanced culturing of fish larvae and broodstock” (University of Maryland Biotechnology Institute, priority 2000, dated 2006).
Values joined by “and” are separate entries in the source; they are usually repeats but may differ in a detail not shown here. Equal entries are not always repeated.

Experiments:
[1] = test system: Gilthead sea bream, Sparus aurata larvae; assay: Gilthead sea bream larvae fed enriched rotifers and Artemia; format: in vivo; conditions: 5 to 34-day-old sea bream larvae; DHA enriched vs no DHA containing rotifers and Artemia
Protocol: Gilthead sea bream, Sparus aurata and European sea bass, Dicentrarchus labrax larvae originated from spawns of locally maintained broodstock were stocked over three days with two-day-old larvae (40,000 larvae tank^−1). Sea bream larvae from day 3 to day 20 were fed twice daily rotifers that were previously enriched on first phototrophically grown Nannochloropsis sp. and then on either Algamac-2000 or PL-Cr. Rotifer and Artemia enrichments and larval feeding were carried out as described in Koven et al. 2001. Sea bream larval growth and survival as a function of enrichment materials was recorded on day 34. European sea bass larvae were maintained in darkness until day-8 when they started feeding on non-enriched Artemia nauplii until day 11. From day-11 to day-21, the larvae were fed twice daily under low illumination (approximately 100-lux) Algamac-2000 or PL-Cr enriched Artemia nauplii.
Total lipids were extracted from triplicate samples. Lipid weight was determined gravimetrically (Mettler UMT2 ±0.1 mg, Toledo, Switzerland) and expressed as percent DW of sample. Fatty acid methyl esters (FAME) were prepared from the whole lipid extract, and the lipid classes separated, saponified and transmethylated as described by Harel et al. (2000).

[2] = test system: striped bass (M. saxatilis) larvae; assay: Salinity stress test, larval survival; format: in vivo, Morone saxatilis; conditions: for Survival (%) at 30 min: 30 min high-salinity stress (25 psu)
Protocol: (§1) A group of 30 larvae was promptly transferred from the 10-liter bucket and immediately divided into three 1-liter beakers (ten larvae in each beaker) containing 25-ppt NaCl in dechlorinated fresh water. These hypersaline exposure conditions were established following preliminary tests in which approximately 50% of the larvae survived after 30 minutes exposure. Larval survival at 0, 15 and 30 minutes was recorded, and five larvae at each time interval were quickly removed and sacrificed on dry ice. Samples were washed with chilled distilled water, dried on paper towel, placed into test tubes and lyophilized to constant weight. The dry weight of each hypersaline-exposed larva was recorded to the nearest 0.1 mg. Samples were kept at −80° C. for subsequent whole larva cortisol analysis.

[3] = test system: striped bass (M. saxatilis) larvae; assay: Whole larva cortisol (RIA) in high-salinity stress; format: in vivo, Morone saxatilis; conditions: for Body Cortisol at 30 min: 30 min high-salinity stress
Protocol: as §1
Cortisol was measured on whole larva using a solid-phase radioimmunoassay (RIA) Coat-A-Count Cortisol kit (DPC, Los Angeles, Calif.) following the manufacturer's procedure. Whole body cortisol was extracted from lyophilized larvae with ethyl ether (Barry et al. 1995). Extraction efficiency was determined by adding 1000 dpm 1,2,6,7-^3H-cortisol to each larva sample (specific activity −67.0 Ci mmol^−1, Amersham, Piscataway, N.J.). Cortisol extracts were reconstituted in 150 μl RIA buffer (included in the cortisol RIA kit). Cortisol concentration was then determined in 100-μl aliquots. Spiking recovery was measured in unknown samples using three spiking dilutions (1, 3, 7 ng, Cortisol Immulite, DPC, Los Angeles, Calif.). […] Two additional 20-μl aliquots were taken to determine ^3H-cortisol recovery.

[4] = test system: striped bass (M. saxatilis) larvae; assay: Striped bass larvae feeding experiment (day 24-46) on Artemia enriched with DHA/AA emulsions: growth, survivorship; format: in vivo, Morone saxatilis; conditions: day 46
Protocol: Newly hatched striped bass (M. saxatilis) larvae were obtained from the Aquaculture Research Center (ARC) of the Center of Marine Biotechnology (COMB), University of Maryland. Larvae were raised for 17 days post hatching on rotifers, Bracionus plicatilis (2-5 rotifers ml^−1), which were grown separately on fresh-water Chlorella sp. paste (0.5 g/10^6 rotifers/day, obtained from Martek BioSci. Inc. Columbia, Md.).
Seventeen days post-hatched larvae were randomly distributed in eighteen 60-liter rearing tanks at an initial density of 160 larvae per tank. The rearing tanks were gently aerated and the water volume exchanged 1-2 times per day with biofiltered, UV treated recirculating water. A 14:10 h light:dark photoperiod cycle was maintained using fluorescent lights (Daylight; 40 watts; 800-1200 lux at the water surface). Temperature was maintained at 24±2° C. and salinity at 2-6 psu. Water quality was monitored daily, and levels of total NH3, unionized N-3, NO2 and pH were maintained below 0.2 ppm, 0.001 ppm, 0.3 ppm and at 8.02, respectively, by partial replacement with fresh water.
Newly hatched Artemia nauplii were introduced to the larvae from day 17 until day 24 (once a day at 20-40 nauplii 1^−1), while rotifer concentration was reduced gradually to a complete removal by day 24.
Larvae then were fed twice daily with Artemia nauplii, enriched with nine dietary emulsions containing varying proportions of DHA and AA.
A 3×3 factorial design with two nutritional factors (DHA and AA) at three levels each and in duplicate blocks was used. This experimental design allowed for the simultaneous study of the effect of increasing dietary levels of DHA and AA either alone or in various combination of both fatty acids. Nine different emulsions having varying proportions of DHA-rich triacylglycerols from heterotrophically grown algae, Crypthecodinium spp. (0, 11.1 and 21.6 mg g^−1 lipids) and AA-rich triacylglycerols (3, 14.5 and 24.8 mg g^−1 lipids) from fungi, Mortierella spp. (DHASCO and ARASCO, Martek BioSci. Columbia, Md.) were formulated.
A mixture of 2% alginic acid, 2% polyoxyethylene sorbitan mono-oleate (Tween-80), 1% ascorbic acid, 1% vitamin-E, 1% silicon based anti-foaming agent (all mad e by Sigma Co. MO) and 5% soy lecithin (80% phosphatidylcholine, Archer Daniels Midland Co., Decatur, Ill.) were added to the oils (all additions made by weight). […]
Feeding experiments were terminated on day 46. […] Survivorship was determined based on the initial and final count of larvae in each rearing tank. […]

[5] = test system: white bass, Morone chrysops larvae; assay: White bass larvae feeding (22 days) on enriched Artemia: growth, survival, total lipid; format: in vivo
Protocol: Larvae rearing. Newly hatched white bass, Morone chrysops larvae were obtained from AquaFutures Inc. (Turners Falls, Mass.). Larvae were grown for 17 days on rotifers, Bracionus plicatilis (2-5 rotifers/ml), which had been cultured on fresh water Chlorella (Martek BioSci. Inc. Columbia, Md.) paste (0.5 g/10^6 rotiferes/day). Larvae were randomly distributed in eighteen 60-liter larval rearing tanks at an initial density of 160 larvae per tank. The tanks were gently aerated and the water volume exchanged 1-2 times per day with biofiltered, U.V treated recirculating water. A 14:10 h light:dark photoperiod was maintained using fluorescent light tubes (Daylight; 40 watts; 800-1200 lux at the water surface). Temperature was maintained at 242° C. and salinity at 2-6 psu. Water quality was monitored daily and levels of total NH3, unionized NH3, NO2 and pH were maintained below 0.2 ppm, 0.001 ppm, 0.3 ppm and at 8.02, respectively. […]
Larvae were then fed twice daily with previously enriched Artemia nauplii, as described above, at a concentration of 50-100 nauplii/liter for the next 22 days.
[…] The dry weight of each larva was recorded to the nearest […] Nettler UMT2, Toledo, Switzerland). […] Survivorship was determined based on the initial and final count of larvae in each rearing tank.

[6] = dietary DHA 0.0 mg g^−1 D.W, pooled over AA levels

Structure (SMILES): CC/C=C\C/C=C\C/C=C\C/C=C\C/C=C\C/C=C\CCC(=O)O [DHA, docosahexaenoic acid]
- Improvement of larval growth [1]: ≤ 40%
- Survival (%) at 30 min [2, 6]: 30.7 ± 4.9^B %
- Survival (%) at 30 min ([2]; dietary DHA 11.1 mg g^−1 D.W): 48.3 ± 7.2^AB %
- Survival (%) at 30 min ([2]; dietary DHA 21.6 mg g^−1 D.W): 50.99 ± 5.8^A %
- Body Cortisol at 0 min [3, 6]: 123 ± 8^A pg mg^−1 D.W
- Body Cortisol at 30 min ([3]; dietary DHA 0.0 mg g^−1 D.W): 155 ± 16^B pg mg^−1 D.W
- Body Cortisol at 0 min ([3]; dietary DHA 11.1 mg g^−1 D.W): 128 ± 16^A pg mg^−1 D.W
- Body Cortisol at 30 min ([3]; dietary DHA 11.1 mg g^−1 D.W): 182 ± 22^AB pg mg^−1 D.W
- Body Cortisol at 0 min ([3]; dietary DHA 21.6 mg g^−1 D.W): 118 ± 11^A pg mg^−1 D.W
- Body Cortisol at 30 min ([3]; dietary DHA 21.6 mg g^−1 D.W): 193 ± 26^A pg mg^−1 D.W
- Larval weight (mean) ([4]; 21.6-mg DHA g^−1 lipids): 20.4 mg dry weight
- Larval weight (mean) ([4]; zero dietary DHA): 22.7 mg dry weight

Structure (SMILES): CCCCC/C=C\C/C=C\C/C=C\C/C=C\CCCC(=O)O [AA, arachidonic acid]
- Larval growth (weight) ([5]; 25.4% AA of enrichment total fatty acids, 11.1% DHA): 13.1±1.5 mg dry weight
- Larval growth (weight) ([5]; no dietary AA, 11.1% DHA of total fatty acids in enrichment lipids): 21.3±1.8 mg dry weight
- Mortality after 30 min of exposure ([2]; 3 mg g^−1 lipids dietary AA (AA deficient larvae), 25-psu): over 80%
- Survival (%) at 30 min ([2]; dietary AA 3.0 mg g^−1 D.W, pooled over DHA levels): 19.5 ± 1.8^B %
- Survival (%) at 30 min ([2]; dietary AA 14.5 mg g^−1 D.W): 61.8±4.2% and 61.8 ± 4.2^A %
- Survival (%) at 30 min ([2]; dietary AA 24.8 mg g^−1 D.W): 48.7 ± 5.0^A %
- Body Cortisol at 0 min ([3]; dietary AA 3.0 mg g^−1 D.W): 106 ± 10^B pg mg^−1 D.W
- Body Cortisol at 30 min ([3]; dietary AA 3.0 mg g^−1 D.W): 171 ± 18^A pg mg^−1 D.W
- Body Cortisol at 0 min ([3]; dietary AA 14.5 mg g^−1 D.W): 142 ± 15^A pg mg^−1 D.W
- Body Cortisol at 30 min ([3]; dietary AA 14.5 mg g^−1 D.W): 192 ± 27^A pg mg^−1 D.W
- Body Cortisol at 0 min ([3]; dietary AA 24.8 mg g^−1 D.W): 122 ± 10^AB pg mg^−1 D.W
- Body Cortisol at 30 min ([3]; dietary AA 24.8 mg g^−1 D.W): 167 ± 20^A pg mg^−1 D.W
- Increase in basal cortisol levels ([3]; increasing dietary AA from 3 to 14.5 mg AA g^−1 lipids): ~40%
- Larval weight ([4]; 3-mg AA g^−1 lipids): 19.4 mg dry weight
- Larval weight ([4]; 14.5-mg AA g^−1 lipids): 23.7 mg dry weight
